From US5710245A, “Alpha-helix mimetics and methods relating thereto” (Molecumetics, Ltd., priority 1995, dated 1998)

Test: Circular dichroism (alpha-helicity) of peptide in water
Type: physicochemical
Settings: ratio of mean residue ellipticity at 222 nm to 208 nm, 75 μM in water
From the text: Alpha-helicity of a peptide is typically determined by measuring its circular dichroism (CD), and CD data is normally presented as mean residue ellipticies [.THETA.]m. Alpha-helical peptides show two negative Cotton effects at 208 nm and 222 nm, and a positive Cotton effect at 193 nm, while the CD spectra of peptides with random coil secondary structure are dominated by the increasing negative Cotton effect at shorter wavelength. Alpha-helicity may be estimated from the value at 222 nm, and by comparing the negative Cotton effects at 222nm and 208nm. Increasing fraction of [.THETA.]m (222 nm) divided by [.THETA.]m(208 nm) correlates with increasing alpha-helicity. High values for [.THETA.]m(208 nm) compared to [.THETA.]m (222 nm) and a shifting minimum from 208 nm to shorter wavelengths indicate random coil conformation.
An NPY analog having the structure Ac-RAAANLITRQRY--NH2 was synthesized according to standard solid phase peptide synthetic techniques. The NPY analog was then dissolved in water at a concentration of 75 μM, and its CD measured using a JASCO J500 CD spectrometer at a temperature of both 3° C. and 25° C. Structure VI was synthesized according to Example 3, and its CD was similarly measured at both 3° C. and 25° C. (at a concentration of 75 μM).

Circular Dichroism 222/208 3° C. (3° C.): 0.38
Circular Dichroism 222/208 25° C. (25° C.): 0.41
Substance: Ac-RAAANLITRQRY-NH2 [NPY Analog, Ac-RAAANLITRQRY--NH2]
